# Test system: TNFa release from stimulated peripheral blood monocytes (PBMCs)
# Experiment: Inhibition by ethyl pyruvate of TNFa release from LPS-stimulated PBMCs (ELISA)
# Assay type: cell-based
# Conditions: for TNFa release, LPS (5 ug/ml) / TNFa release, LPS (10 ug/ml): ELISA; for inhibition at 5000 µM / inhibition at 10000 µM / inhibition at 25000 µM / inhibition at 50000 µM: PBMC
# Protocol: The Effect of Alpha-Ketoalkanoic Acid on TNFa Release from Stimulated Peripheral Blood Monocytes (PBMCS)
# The cells were cultured in RPMI 1640 supplemented with 1% serum albumin for approximately 12 hours before treating with LPS (Lipopolysaccharide from E. Coli) at increasing concentrations to induce TNFa release. […] The effects of ethyl pyruvate (EP) on PBMC=s macrophages cultures with 5-10 micrograms of LPS was used to stimulate relase of TNFa.
# Inhibition by Ethyl Pyruvate of TNFa Release (Measured via ELISA Assay)
smiles,measurement,setting,value
"CCOC(=O)C(C)=O [EP, ethyl pyruvate]","TNFa release, LPS (5 ug/ml)","EP 5 mM, LPS 5 ug/ml",450 arbitrary fluorescence units
same,"TNFa release, LPS (10 ug/ml)","EP 5 mM, LPS 10 ug/ml",480 arbitrary fluorescence units
same,"TNFa release, LPS (5 ug/ml)","EP 10 mM, LPS 5 ug/ml",275 arbitrary fluorescence units
same,"TNFa release, LPS (10 ug/ml)","EP 10 mM, LPS 10 ug/ml",310 arbitrary fluorescence units
same,"TNFa release, LPS (5 ug/ml)","EP 25 mM, LPS 5 ug/ml",201 arbitrary fluorescence units
same,"TNFa release, LPS (10 ug/ml)","EP 25 mM, LPS 10 ug/ml",190 arbitrary fluorescence units
same,"TNFa release, LPS (5 ug/ml)","EP 50 mM, LPS 5 ug/ml",200 arbitrary fluorescence units
same,"TNFa release, LPS (10 ug/ml)","EP 50 mM, LPS 10 ug/ml",180 arbitrary fluorescence units
same,Inhibition of TNFa release (in words),"LPS & EP incubated in the cultures, different concentrations",effective inhibitor of TNFa release
same,inhibition at 5000 µM,"EP 5 mM, LPS 5 ug/ml",12%
same,inhibition at 5000 µM,"EP 5 mM, LPS 10 ug/ml",6%
same,inhibition at 10000 µM,"EP 10 mM, LPS 5 ug/ml",47%
same,inhibition at 10000 µM,"EP 10 mM, LPS 10 ug/ml",59%
same,inhibition at 25000 µM,"EP 25 mM, LPS 5 ug/ml",51%
same,inhibition at 25000 µM,"EP 25 mM, LPS 10 ug/ml",75%
same,inhibition at 50000 µM,"EP 50 mM, LPS 5 ug/ml",51%
same,inhibition at 50000 µM,"EP 50 mM, LPS 10 ug/ml",76%

# — patent publication US20090012163A1, “Compositions containing Mg/Zn/F-CaP plus inhibitors of pro-inflammatory cytokines (alpha ketoalkanoic acid compound) for osteoporosis prevention, therapy and treatment of bone diseases” (priority 2007, published 2009)
